Structures can show the parent of a compound that is named as a salt. Where two headings read alike, the source gives them in different places.
What was measured:
[1] = tested on: SMN2 minigene (full length SMN2 minigene mRNA containing SMN2 exon 7); experiment: SMN2 minigene mRNA splicing RT-qPCR assay in cultured cells; type: cell-based, human; conditions: for EC (1.5-fold): Homo sapiens, HEK293-H, read-out: EC1.5x for production of full length SMN2 mRNA
Procedure: The reverse transcription-quantitative PCR-based (RT-qPCR) assay is used to quantify the level of the full length SMN2 minigene mRNA containing SMN2 exon 7 in a HEK293H cell line stably transfected with said minigene and treated with a test compound.
Protocol. HEK293H cells stably transfected with the SMN2-A minigene construct described above (10,000 cells/well) are seeded in 200 μL of cell culture medium (DMEM plus 10% FBS, with 200 μg/mL hygromycin) in 96-well flat-bottom plates and the plate is immediately swirled to ensure proper dispersal of cells, forming an even monolayer of cells. Cells are allowed to attach for at least 4-6 hours. […] A solution of test compound (1 μL, 200× in DMSO) is added to each cell-containing well and the plate is incubated for 24 hours in a cell culture incubator (37° C., 5% CO2, 100% relative humidity). 2 replicates are prepared for each test compound concentration. The cells are then lysed in Cells-To-Ct lysis buffer and the lysate is stored at −80° C.
The combination of these three oligonucleotides detects only SMN1 or SMN2 minigenes (RT-qPCR) and will not detect endogenous SMN1 or SMN2 genes.
The SMN forward and reverse primers are used at final concentrations of 0.4 μM.
The SMN2-minigene GAPDH mix (15 μL total volume) is prepared by combining 7.5 μL of 2×RT-PCR buffer, 0.4 μL of 25×RT-PCR enzyme mix, 0.75 μL of 20×GAPDH primer-probe mix, 4.0075 μL of water, 2 μL of 10-fold diluted cell lysate, 0.06 μL of 100 μM SMN forward primer, 0.06 μL of 100 μM SMN reverse primer, and 0.225 μL of 100 μM SMN probe.
PCR is carried out at the following temperatures for the indicated time: Step 1: 48° C. (15 min); Step 2: 95° C. (10 min); Step 3: 95° C. (15 sec); Step 4: 60° C. (1 min); then repeat Steps 3 and 4 for a total of 40 cycles.
Each reaction mixture contains both SMN2-A minigene and GAPDH primers/probe sets (multiplex design), allowing simultaneous measurement of the levels of two transcripts.
Two SMN spliced products are generated from the SMN2 minigene. The first spliced product containing exon 7, corresponding to full length SMN2 mRNA, is called SMN2mini FL. The second one lacking exon 7 is called SMN2mini Δ7.
The amplification efficiency E is calculated from the slope of the amplification curve for SMN2mini FL and GAPDH individually. The abundances of SMN2mini FL and GAPDH are then calculated as […], where Ct is the threshold value for each amplicon. The abundance of SMN2mini FL is normalized to GAPDH abundance. The normalized SMN2mini FL abundance from test compound-treated samples is then divided by normalized SMN2mini FL abundance from vehicle-treated cells to determine the level of SMN2 FL mRNA relative to vehicle control.
An EC1.5x for production of full length SMN2 mRNA between >3 μM and ≤30 μM is indicated by one star (*), an EC1.5x between >1 μM and ≤3 μM is indicated by two stars (**), an EC1.5x between >0.3 μM and ≤1 μM is indicated by three stars (***), an EC1.5x between >0.1 μM and ≤0.3 μM is indicated by four stars (****) and an EC1.5x≤0.1 μM is indicated by five stars (*****).

Smn protein = Smn protein assay in cultured cells (SMN HTRF); type: cell-based, human; conditions: for EC1.5x (concentration giving 1.5-fold Smn protein increase): SMA Type 1 patient fibroblast cells (GM03813), 7-point concentration curve, SMN HTRF, concentration producing 1.5 times Smn protein vs DMSO vehicle control, read-out: EC1.5x for Smn protein expression
Procedure: The SMN HTRF (homogeneous time resolved fluorescence) assay is used to quantify the level of Smn protein in SMA patient fibroblast cells treated with test compounds.
Protocol. Cells are thawed and cultured in DMEM-10% FBS for 72 hours. Cells are trypsinized, counted and resuspended to a concentration of 25,000 cells/mL in DMEM-10% FBS. […] 1 μL of test compound solution is transferred to cell-containing wells and cells are incubated for 48 hours in a cell culture incubator (37° C., 5% CO2, 100% relative humidity). Triplicate samples are set up for each test compound concentration. After 48 hours, the supernatant is removed from the wells and 25 μL of the RIPA lysis buffer, containing protease inhibitors, is added to the wells and incubated with shaking at room temperature for 1 hour. 25 μL of the diluent is added and then 35 μL of the resulting lysate is transferred to a 384-well plate, where each well contains 5 μL of the antibody solution (1:100 dilution of anti-SMN d2 and anti-SMN kryptate in SMN reconstitution buffer). The plate is centrifuged for 1 minute to bring the solution to the bottom of the wells, then incubated overnight at room temperature. Fluorescence for each well of the plate at 665 nm and 620 nm is measured on an EnVision multilabel plate reader (Perkin-Elmer).
The normalized fluorescence signal is calculated for each sample, Blank and vehicle control well by dividing the signal at 665 nm by the signal at 620 nm. Normalizing the signal accounts for possible fluorescence quenching due to the matrix effect of the lysate. The ΔF value (a measurement of Smn protein abundance) for each sample well is calculated by subtracting the normalized average fluorescence for the Blank control wells from the normalized fluorescence for each sample well and then dividing this difference by the normalized average fluorescence for the Blank control wells. The resulting ΔF value for each sample well represents the Smn protein abundance from test compound-treated samples. The ΔF value for each sample well is divided by the ΔF value for the vehicle control wells to calculate the fold increase in Smn protein abundance relative to the vehicle control.
An EC1.5x for Smn protein expression between >3 μM and ≤10 μM is indicated by one star (*), an EC1.5x between >1 and ≤3 μM is indicated by two stars (**), an EC1.5x between >0.3 μM and ≤1 μM is indicated by three stars (***) and an EC1.5x≤0.3 μM is indicated by four stars (****).

[2] = HEK293H cells stably transfected with SMN2-A minigene, 24 hours, 7-point concentration curve, 1.5-fold relative to vehicle-treated cells
[3] = SMA patient fibroblast cells, 48 hours, 7-point concentration data, fold increase relative to vehicle control (SMN HTRF)

Compound | EC (1.5-fold) [1, 2] [µM] | maximum fold (Fold) increase of Smn protein (Smn protein; [3]) | EC1.5x (concentration giving 1.5-fold Smn protein increase) (Smn protein; 48 hours) [nM] | EC (1.5-fold) ([1]; 24 h) [µM] | maximum fold (Fold) increase of Smn protein (Smn protein) | EC1.5x for production of full length SMN2 mRNA [1, 2]
COc1ccc(-c2cc3c(F)cc(N4CCN(C)CC4)cc3oc2=O)cc1OC [Compound 405, 3-(3,4-dimethoxyphenyl)-5-fluoro-7-(4-methylpiperazin-1-yl)-2H-chromen-2-one] | 3 to 30 | ** (fold increase between >1.2 and ≤1.35) |  |  |  | 
Cc1cn2cc(-c3cc4ccc(N5CCN(C)[C@@H](C(C)C)C5)cc4oc3=O)nc2c(C)n1 [Compound 809, 3-(6,8-dimethylimidazo[1,2-a]pyrazin-2-yl)-7-[(3S)-4-methyl-3-(propan-2-yl)piperazin-1-yl]-2H-chromen-2-one] | 0.3 to 1 | **** (fold increase between >1.5 and ≤1.65) | 1000 to 3000 |  |  | 
Cc1cn2cc(-c3cc4c(F)cc(N5CCN(C)[C@@H](C)C5)cc4oc3=O)nc2cn1 [Compound 659, 7-[(3S)-3,4-dimethylpiperazin-1-yl]-5-fluoro-3-(6-methylimidazo[1,2-a]pyrazin-2-yl)-2H-chromen-2-one] | < 0.1 | **** (fold increase between >1.5 and ≤1.65) | < 300 |  |  | 
Cc1cc2sc(-c3cc4ccc(N5CCNCC5)cc4oc3=O)cc2c(C)n1 [Compound 817, 3-(4,6-dimethylthieno[3,2-c]pyridin-2-yl)-7-(piperazin-1-yl)-2H-chromen-2-one] | < 0.1 | ** (fold increase between >1.2 and ≤1.35) |  |  |  | 
Cc1cn2cc(-c3cc4ccc(N5C[C@@H]6CCCN(C)[C@@H]6C5)cc4oc3=O)nc2c(C)n1 [Compound 795, 3-(6,8-dimethylimidazo[1,2-a]pyrazin-2-yl)-7-[(4aS,7aS)-1-methyloctahydro-6H-pyrrolo[3,4-b]pyridin-6-yl]-2H-chromen-2-one] | < 0.1 | **** (fold increase between >1.5 and ≤1.65) | < 300 |  |  | 
O=c1oc2cc(OC3CCNC3)ccc2cc1-c1cn2cccnc2n1 (stereo in doubt) [Cpd 321, 3-(imidazo[1,2-a]pyrimidin-2-yl)-7-[(3R)-pyrrolidin-3-yloxy]-2H-chromen-2-one hydrochloride (1:2)] |  |  |  | 1 to 3 | ** (key: *: maximum fold increase of ≤1.2; **: fold increase between >1.2 and ≤1.35; ***: fold increase between >1.35 and ≤1.5; ****: fold increase between >1.5 and ≤1.65; *****: fold increase >1.65) | 
Cc1cn2cc(-c3cc4ccc(N5CCC(C#N)CC5)cc4oc3=O)nc2c(C)n1 [Compound 974, 1-[3-(6,8-dimethylimidazo[1,2-a]pyrazin-2-yl)-2-oxo-2H-chromen-7-yl]piperidine-4-carbonitrile] | 3 to 30 | ** (fold increase between >1.2 and ≤1.35) |  |  |  | 
Cc1cn2cc(-c3cc4ccc(N5CCN[C@@H](C)C5)cc4oc3=O)nc2c(C)n1 [Compound 537, 3-(6,8-dimethylimidazo[1,2-a]pyrazin-2-yl)-7-[(3S)-3-methylpiperazin-1-yl]-2H-chromen-2-one] | < 0.1 | ***** (fold increase >1.65) | < 300 |  |  | 
O=c1oc2cc(N3CCN4CCC[C@H]4C3)ccc2cc1-c1ccc2nccn2c1 [Compound 979, 7-[(8aS)-hexahydropyrrolo[1,2-a]pyrazin-2(1H)-yl]-3-(imidazo[1,2-a]pyridin-6-yl)-2H-chromen-2-one] | 1 to 3 | ** (fold increase between >1.2 and ≤1.35) |  |  |  | 
CCN1[C@H](C)CN(c2ccc3cc(-c4cn5cc(C)ncc5n4)c(=O)oc3c2)C[C@@H]1C [Compound 797, 7-[(3R,5S)-4-ethyl-3,5-dimethylpiperazin-1-yl]-3-(6-methylimidazo[1,2-a]pyrazin-2-yl)-2H-chromen-2-one] | < 0.1 | **** (fold increase between >1.5 and ≤1.65) | < 300 |  |  | 
Cl.O=c1oc2cc(N3CCNCC3)ccc2cc1-c1nc2c(F)cccc2o1 [Compound 40, 3-(4-fluoro-1,3-benzoxazol-2-yl)-7-(piperazin-1-yl)-2H-chromen-2-one hydrochloride] | 1 to 3 | ** (fold increase between >1.2 and ≤1.35) |  |  |  | 
Cc1cn2cc(-c3cc4ccc(N5CCN[C@@H](C)C5)cc4oc3=O)cc(F)c2n1 [Compound 984, 3-(8-fluoro-2-methylimidazo[1,2-a]pyridin-6-yl)-7-[(3S)-3-methylpiperazin-1-yl]-2H-chromen-2-one] | < 0.1 | ***** (fold increase >1.65) | < 300 |  |  | 
Cc1cn2cc(-c3cc4ccc(N5C[C@@H](C)N[C@@H](C)C5)cc4oc3=O)nc2c(C)n1 [Compound 517, 3-(6,8-dimethylimidazo[1,2-a]pyrazin-2-yl)-7-[(3R,5S)-3,5-dimethylpiperazin-1-yl]-2H-chromen-2-one] | < 0.1 | ***** (fold increase >1.65) | < 300 |  |  | 
3-(6-chloroimidazo[1,2-a]pyrimidin-2-yl)-7-(piperazin-1-yl)-2H-chromen-2-one [Compound 348] |  | * (maximum fold increase of ≤1.2) |  |  |  | ** (between >1 μM and ≤3 μM)
O=c1oc2cc(N3CCNCC3)ccc2cc1-c1cn2ccc(C(F)(F)F)cc2n1 [Compound 114, 7-(piperazin-1-yl)-3-[7-(trifluoromethyl)imidazo[1,2-a]pyridin-2-yl]-2H-chromen-2-one] | < 0.1 | ** (fold increase between >1.2 and ≤1.35) |  |  |  | 
